By solubility is commonly meant how much of the substance goes into solution per volume. A lower solubility goes with a poorly soluble substance. Usually AUC(0-inf) stands for the area under the concentration-time curve extrapolated to infinity. A higher AUC(0-inf) goes with high exposure. A word on the AUC(0-t): it is the area under the concentration-time curve up to a stated or last time point. The MRT inf is a mean duration of stay, worked out from the concentration-time curve. What is called Vd is a proportionality between amount in the body and measured concentration, not a real space. In general, clearance refers to the rate of elimination divided by the concentration. Lower therefore signals inefficient removal. The term half-life denotes how long it takes for the measured level to halve. Lower therefore signals fast loss.

Several values for one entry are separate records, joined by “and”; a condition that tells them apart may be missing. Equal values may be shown once.

Series [1] is described as follows: Solution stability (hydrolysis) in phosphate-buffered D2O at pD 5, 6, 7 monitored by 1H NMR. Type of series: physicochemical. The note with it: for stability to the pD's (in words): pD 5, 6, 7 in D2O; for Time to % hydrolysis t10% / Time to % hydrolysis t25% / Time to % hydrolysis t50%: 23° C.; for change in 1H NMR spectra: after 167 days, pD 5, 6, 7. As to the method: 10 mL (11.07 g) D2O was placed in 3 separate vials with a stir bar and 0.002 moles (0.272 g) monobasic potassium phosphate (KH2PO4) was added to each. With the pD metered, NaOD/D2O was added drop-wise to each to adjust the pD's to 5.0, 6.0, and 7.0. Each of these solutions was gently boiled before use. Thus each vial contained […] phosphate buffered solution. […] The sample was sterilized by heating for 10 seconds, and after it had cooled down to ambient temperature (about 1 minute), 0.3 mL of one of the 0.2 mM 3 buffered solutions was added. The 0.6 mL sample was then placed in a sterilized NMR tube and the tube sealed and labeled. Each of the samples was stored at 23° C. protected from the light and monitored by ^1H NMR (64 scans for each sample) periodically.

Series [2] is described as follows: Water (D2O) solubility by 1H NMR against DSS standard. Type of series: physicochemical. The note with it: for solubility at 3 days: water, thermodynamic from solid. Here is the method:
The method use involved stirring the sample in D2O for a period of 3 days, followed by filtration using a 0.2μ syringe filter. A measured volume of this saturated solution was diluted with a standard solution of DSS in D2O, and a ^1H NMR was taken. Integration of the DSS peaks compared to that of the analog would allow for the determination of its concentration, and thus the concentration of the saturated solution.

A short description of series [3]: in vivo. The note with it: male, Sprague-Dawley, rat, iv.
For series [4] the following is noted: rat, in vivo, iv; for AUCinf/AUClast of the pro-drug: male, Sprague-Dawley.
The nature of series [5]: Pharmacokinetics after intravenous administration in male Sprague-Dawley rats.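 For all read-outs here: rats fasted overnight before dosing and fed about 4 h afterwards, with serial blood sampled through a carotid artery catheter at each time point.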 To be noted: for mean concentration of acetaminophen in rat plasma or blood: 66 μmol/kg nominal, plasma (blood for 18, 19).
The conditions of series [6]: water; cited from earlier work.
The mark [7] stands for this setting: acetaminophen analyte after IV dose of acetaminophen or pro-drug, rat.
The mark [8] stands for this setting: stirred 3 days in D2O, 0.2 μ filtered.

On to `CC(=O)Nc1ccc(O[C@@H]2C=C[C@H](O)[C@@H](CO)O2)cc1` [compound 1, N-(4-((2R,5S,6R)-5-hydroxy-6-(hydroxymethyl)-5,6-dihydro-2H-pyran-2-yloxy)phenyl)acetamide], for which the “stability to the pD's (in words)” value in series [1] is recorded as “least stable”. Also, in series [1] (pD 5, D2O), the “Time to % hydrolysis t10%” value worked out at 0.3 days, the “Time to % hydrolysis t25%” value is 0.8 days and the “Time to % hydrolysis t50%” value is 2.0 days. In series [1] (pD 6, D2O), the “Time to % hydrolysis t10%” value was determined as 2.25 days, the “Time to % hydrolysis t25%” value turned out to be 6.25 days and the “Time to % hydrolysis t50%” value is on record as 17 days. Also, in series [1] (pD 7, D2O), the “Time to % hydrolysis t10%” value was 5.5 days, the “Time to % hydrolysis t25%” value was found to be 26 days and the “Time to % hydrolysis t50%” value is recorded as 70 days. Also, in series [2], the relative molar solubility is 0.6; the solubility at 3 days is 14000 µg/mL and 53000 µM.

For `CC(=O)Nc1ccc(O[C@H]2O[C@H](CO)[C@@H](O[C@H]3O[C@H](CO)[C@@H](O)[C@H](O)[C@H]3O)[C@H](O)[C@@H]2O)cc1` [compound 5, 1-(4-acetaminophenoxy) 2-epi maltose], in series [3], the total exposure AUC(0-inf) amounted to 1.69 µM·h, the AUC(0-t) was determined as 1.57 µM·h, the C0 was found to be 2.49 µM and the MRT inf came out at 39.2 min. For the same molecule, in series [3], the Vd was found to be 26.8 L/kg, the clearance turned out to be 759 mL/min/kg and the half-life was 79.2 min. In series [1], the “change in 1H NMR spectra” value is reported as “no change”. In series [4], the “AUCinf/AUClast of the pro-drug” value came to 106%, the “AUC of the pro-drug (in words)” value is reported as “high” and the “half-lives of the pro-drug (in words)” value is recorded as “relatively high”. In addition, in series [2], the relative molar solubility is above 14; the “solubility (in words)” value was “highest solubility”; the solubility at 3 days was > 621000 µg/mL and > 1.3e+06 µM.

In the case of `CC(=O)Nc1ccc(O[C@H]2O[C@H](CO)[C@@H](O)[C@H](O)[C@@H]2O)cc1` [compound 8, 1-(4′-acetamidophenoxy) mannose], in series [3], the AUC(0-inf) was 44.9 µM·h, the AUC(0-t) came out at 44.9 µM·h, the C0 was determined as 336 µM and the MRT inf amounted to 14.2 min. In addition, in series [3], the Vd was 0.349 L/kg, the clearance turned out to be 24.7 mL/min/kg and the half-life was 39.5 min. For the same molecule, the “change in 1H NMR spectra” value in series [1] was “no change”. For the same molecule, in series [4], the “AUCinf/AUClast of the pro-drug” value turned out to be 100% and the “AUC of the pro-drug (in words)” value is on record as “low”. In series [2], the relative molar solubility came out at 1.8; the solubility at 3 days is 51000 µg/mL and 164000 µM.

For `CC(=O)Nc1ccc(O[C@@H]2CCC(O)[C@@H](CO)O2)cc1` (some centres unmarked) [compound 12, 1-(4′-acetamidophenoxy) 2,3-dideoxy glucose], the “stability to the pD's (in words)” value in series [1] was “a lot of instability”. Further, in series [1] (pD 5, D2O), the “Time to % hydrolysis t10%” value is given as 7 days, the “Time to % hydrolysis t25%” value stood at 20 days and the “Time to % hydrolysis t50%” value is 58 days. Besides, in series [1] (pD 6, D2O), the “Time to % hydrolysis t10%” value is recorded as 48 days. Further, in series [2], the relative molar solubility was found to be 0.3; the solubility at 3 days was 9000 µg/mL and 31000 µM.

Take `CC(=O)Nc1ccc(O[C@H]2O[C@H](COC(C)=O)[C@@H](O)[C@H](O)[C@@H]2O)cc1` [compound 15]: in series [3], the AUC(0-inf) came to 14.2 µM·h, the AUC(0-t) stood at 14.2 µM·h, the C0 stood at 95.8 µM and the MRT inf worked out at 10.2 min. In series [3], this molecule had a Vd of 0.8 L/kg, a clearance of 78.7 mL/min/kg and a half-life of 13.2 min. In series [4], the “AUCinf/AUClast of the pro-drug” value worked out at 100% and the “AUC of the pro-drug (in words)” value is recorded as “low”. For the same molecule, in series [2], the relative molar solubility is recorded as 5.6; the solubility at 3 days is 203000 µg/mL and 570000 µM.

In series [3], `CCCC(=O)OC[C@H]1O[C@H](Oc2ccc(NC(C)=O)cc2)[C@@H](O)[C@@H](O)[C@@H]1O` [compound 18, 1-(4′-acetamidophenoxy)-6-O-butyrylmannose] gave an AUC(0-inf) of 3.31 µM·h, an AUC(0-t) of 3.3 µM·h, a C0 of 43.1 µM and an MRT inf of 4.56 min. In series [3], this molecule gave a Vd of 1.56 L/kg, a clearance of 345 mL/min/kg and a half-life of 3.13 min. Moreover, in series [4], the “AUCinf/AUClast of the pro-drug” value amounted to 100% and the “AUC of the pro-drug (in words)” value was “low”. In series [2], the relative molar solubility was 0.81; the solubility at 3 days is 30000 µg/mL and 77000 µM.

In the case of `CC(=O)Nc1ccc(O[C@H]2O[C@H](COC(=O)C(C)C)[C@@H](O)[C@H](O)[C@@H]2O)cc1` [compound 19, 1-(4′-acetamidophenoxy)-6-O-isobutyrylmannose], in series [3], the AUC(0-inf) stood at 3.68 µM·h, the area under the curve AUC(0-t) was found to be 3.68 µM·h, the C0 was determined as 31.1 µM and the MRT inf turned out to be 8.7 min. Also, in series [3], the Vd amounted to 1.77 L/kg, the clearance amounted to 203 mL/min/kg and the half-life is 14.6 min. Moreover, in series [4], the “AUCinf/AUClast of the pro-drug” value is reported as 100% and the “AUC of the pro-drug (in words)” value is reported as “low”. In series [2], the relative molar solubility stood at 0.43; the solubility at 3 days is 16000 µg/mL and 41000 µM.

For `CC(=O)Nc1ccc(O[C@H]2O[C@H](COC(=O)CCC(=O)O)[C@@H](O)[C@H](O)[C@@H]2O)cc1` [compound 20], in series [3], the AUC(0-inf) came to 51.9 µM·h, the AUC(0-t) stood at 51.8 µM·h, the C0 was found to be 218 µM and the MRT inf turned out to be 25.2 min. In series [3], this molecule gave a Vd of 0.549 L/kg, a clearance of 22.7 mL/min/kg and a half-life of 123 min. Further, in series [4], the “AUCinf/AUClast of the pro-drug” value was found to be 100%, the “AUC of the pro-drug (in words)” value is reported as “high” and the “half-lives of the pro-drug (in words)” value was “relatively high”.

In series [3], `CC(=O)Nc1ccc(O[C@H]2O[C@H](C)[C@@H](O)[C@H](O)[C@@H]2O)cc1` [compound 23, 1-(4′-acetamidophenoxy)-6-deoxymannose] gave an AUC(0-inf) of 44.1 µM·h, an AUC(0-t) of 44 µM·h, a C0 of 123 µM and an MRT inf of 52.7 min. Also, in series [3], the Vd was 1.58 L/kg, the clearance stood at 24.9 mL/min/kg and the half-life is 116 min. In series [4], the “AUCinf/AUClast of the pro-drug” value came out at 100%, the “AUC of the pro-drug (in words)” value is reported as “high” and the “half-lives of the pro-drug (in words)” value is “relatively high”. Further, in series [2], the relative molar solubility is recorded as 2.1; the solubility at 3 days is 60000 µg/mL and 202000 µM.

On to acetaminophen, for which the “change in 1H NMR spectra” value in series [1] is listed as “no change”. In addition, the “mean concentration of acetaminophen in rat plasma or blood” value in series [5] (2 min after IV dose of acetaminophen or pro-drug) was found to be 133.854 µM; in series [5] (5 min after IV dose of acetaminophen or pro-drug) it was 89.75 µM; in series [5] (0.250 h after IV dose of acetaminophen or pro-drug), 45.118 µM; in series [5] (0.500 h after IV dose of acetaminophen or pro-drug) it was 23.661 µM; in series [5] (2.00 h after IV dose of acetaminophen or pro-drug), 0.823 µM; in series [5] (4.00 h after IV dose of acetaminophen or pro-drug) it was 0.528 µM. Further, the “mean concentration of acetaminophen in rat plasma or blood” value was 0.237 µM in series [5] (6.00 h after IV dose of acetaminophen or pro-drug) and 0.108 µM in series [5] (8.00 h after IV dose of acetaminophen or pro-drug). Further, in series [5] (setting [7]), the AUCinf of acetaminophen was 41.231 µM·h. This molecule showed an AUCinf/AUClast of acetaminophen in series [5] (setting [7]) of 100%. This molecule returned an AUClast of acetaminophen in series [5] (setting [7]) of 41.031 µM·h. Moreover, the MRTinf of acetaminophen in series [5] (setting [7]) turned out to be 39.7 min. For the same molecule, in series [5] (setting [7]), the Vdss of acetaminophen stood at 1.06 L/kg. The “t1/2 of acetaminophen from the pro-drug” value in series [5] (setting [7]) was found to be 148 min. The C0 in series [5] (read-out: C0 of acetaminophen, acetaminophen analyte after IV dose of acetaminophen or pro-drug, extrapolated to time 0) was 175 µM. For the same molecule, the “literature value of acetaminophen's solubility” value in series [6] was 14 mg/mL. The “D2O solubility (mM)” value in series [2] (setting [8]) turned out to be 95 mM. Further, the “D2O solubility (mg/mL)” value in series [2] (setting [8]) came to 13 mg/mL.

Source of the values: US8722864B2 (Nutek Pharma Ltd., priority 2010, dated 2014).
